Assay results reported in patent publication EP4656642A1, “ESTROGEN RECEPTOR PROTEOLYSIS TARGETING CHIMERA COMPOUND AND USE THEREOF” (GAN & LEE PHARM CO., LTD, priority 2023, dated 2024).

Key:
Format in all cases: cell-based
[1] = system: MCF-7 cells; test: Inhibition of cell proliferation of MCF-7 cells (CCK-8, 9 days); conditions: treated for 9 days, CCK-8 kit (Table 6)
Procedure, shortened: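 Read-out was CCK-8 viability after 9-day continuous exposure (37°C, 5% CO2) of MCF-7 cells plated at 800/well in 10% FBS DMEM across several compound concentrations. Values are proliferation IC50s.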

[2] = target: T1, ERα (Homo sapiens, UniProt P03372); test: Degradation of ERα in MCF-7 cells (immunoblotting, 4 h)
T1 sequence (P03372 1-595): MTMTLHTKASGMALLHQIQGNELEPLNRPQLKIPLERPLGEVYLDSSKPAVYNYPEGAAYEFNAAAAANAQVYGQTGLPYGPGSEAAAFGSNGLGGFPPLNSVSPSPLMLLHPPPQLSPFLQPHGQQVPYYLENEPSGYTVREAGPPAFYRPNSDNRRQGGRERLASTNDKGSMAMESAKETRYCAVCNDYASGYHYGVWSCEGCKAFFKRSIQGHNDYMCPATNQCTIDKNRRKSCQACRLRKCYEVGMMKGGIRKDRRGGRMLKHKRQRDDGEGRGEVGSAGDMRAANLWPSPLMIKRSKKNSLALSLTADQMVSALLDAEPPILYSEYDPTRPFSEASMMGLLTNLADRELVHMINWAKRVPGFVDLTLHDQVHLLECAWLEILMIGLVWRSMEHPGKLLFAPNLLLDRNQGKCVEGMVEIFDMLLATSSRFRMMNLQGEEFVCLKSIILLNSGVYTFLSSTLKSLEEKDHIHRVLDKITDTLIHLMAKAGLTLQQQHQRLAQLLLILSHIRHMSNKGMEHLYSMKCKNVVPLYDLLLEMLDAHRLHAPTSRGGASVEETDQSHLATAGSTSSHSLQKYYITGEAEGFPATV
Procedure, shortened: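 Degradation rate reflects ERα band intensity, corrected to an internal reference protein, relative to control. Values come from Western blotting of lysates from MCF-7 cells exposed 4 h at 37°C to compounds at final concentrations of 0.15-1000nM.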

[3] = target: T1, ERα; test: Degradation of ERα in T-47D cells (immunoblotting, 4 h); design: host or cells: T-47D
Procedure, shortened: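 ERα protein levels were assessed by immunoblot of RIPA lysates (with protease inhibitor) after 4 h exposure at 37°C. Compound was added in DMSO to T-47D cells at final concentrations of 0.15-1000 nM.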

IC50 [1] [nM]	Degradation rate (%) of ERα in MCF-7 cells ([2]; 1nM compound) [%]	Degradation rate (%) of ERα in MCF-7 cells ([2]; 10nM compound) [%]	Degradation rate (%) of ERα in T-47D cells ([3]; 1nM compound) [%]	Degradation rate (%) of ERα in T-47D cells ([3]; 10nM compound) [%]	Structure (SMILES)
49.7	22	45	51	69	C[C@@H]1Cc2c(ccc3[nH]ncc23)C(c2c(F)cc(N3CCC4(CCC(N5CCC6(CC5)COc5c6ccc6c5CN(C5CCC(=O)NC5=O)C6=O)CC4)CC3)cc2F)N1CC(F)F (some centres unmarked) [G20]
724	17	62	36	58	O=C1CCC(N2Cc3c(ccc4c3OCC43CCN(CC4CCN(C5CCN(c6ccc([C@@H]7c8ccc(O)cc8CC[C@@H]7c7ccccc7)cc6)CC5)CC4)CC3)C2=O)C(=O)N1 (some centres unmarked) [K6]
9.92	19	40	15	46	O=C1CCC(N2Cc3c(ccc4c3OCC43CCN(CC(=O)N4CC5(CCC(C#Cc6ccc([C@@H]7c8ccc(O)cc8CC[C@@H]7c7ccccc7)cc6)CC5)C4)CC3)C2=O)C(=O)N1 (some centres unmarked) [B30]
5.08	50	71	48	77	CN(C(=O)CN1CCC2(CC1)COc1c2ccc2c1CN(C1CCC(=O)NC1=O)C2=O)C1CCC2(CC1)CN(c1ccc([C@@H]3c4ccc(O)cc4CC[C@@H]3c3ccccc3)cc1)C2 (some centres unmarked) [H49]
7.71	16	14	53	76	O=C1CCC(N2Cc3c(ccc4c3OCC43CCN(C(=O)CN4CCC5(CC4)CCN(c4ccc([C@@H]6c7ccc(O)cc7CC[C@@H]6c6ccccc6)cc4)C5)CC3)C2=O)C(=O)N1 (some centres unmarked) [A75]
12.5	3	58	24	77	C[C@@H]1Cc2c([nH]c3ccccc23)[C@@H](c2c(F)cc(N3CCC4(CC3)CC(N3CC[C@@H](N5CCC6(CC5)COc5c6ccc6c5CN(C5CCC(=O)NC5=O)C6=O)[C@@H](F)C3)C4)cc2F)N1CC(F)F (some centres unmarked) [D10]
1260	-9	-11	1	2	O=C1CCC(N2Cc3cc4c(cc3C2=O)OC2(CC4)CN(C3CC4(CCC5(CC4)CN(c4ccc([C@@H]6c7ccc(O)cc7CC[C@@H]6c6ccccc6)cc4)C5)C3)C2)C(=O)N1 (some centres unmarked) [H26]
179	64	71	71	83	CN(CC1CCN(c2ccc([C@@H]3c4ccc(O)cc4CC[C@@H]3c3ccccc3)cc2)CC1)[C@H]1CC[C@@H](C(=O)N2CCC3(CC2)COc2c3ccc3c2CN(C2CCC(=O)NC2=O)C3=O)CC1 (some centres unmarked) [B34]
445	1	43	28	62	O=C1CCC(N2Cc3c(ccc4c3OCC43CCN(C(=O)C45CCC(CN6CCN(c7ccc([C@@H]8c9ccc(O)cc9CC[C@@H]8c8ccccc8)cc7)CC6)(CC4)CC5)CC3)C2=O)C(=O)N1 (some centres unmarked) [G23]
9.27	24	57	47	81	O=C1CCC(N2Cc3c(ccc4c3OCC43CCN(C4CCN(C(=O)C5CCN(c6ccc(C7c8ccc(O)cc8CCC7c7ccccc7)cc6)CC5)CC4F)CC3)C2=O)C(=O)N1 (centres unmarked) [G12]
85	54	85	73	90	O=C1CCC(N2Cc3c(ccc4c3OCC43CCN(CC(=O)N4CCC(OC5CCN(c6ccc([C@@H]7c8ccc(O)cc8CC[C@@H]7c7ccccc7)cc6)CC5)CC4)CC3)C2=O)C(=O)N1 (some centres unmarked) [K46]
12.6	39	75	57	82	O=C1CCC(N2Cc3c(ccc4c3OCC43CCN(C(=O)C4CCN(CC5(F)CCN(c6ccc([C@@H]7c8ccc(O)cc8CC[C@@H]7c7ccccc7)cc6)CC5)CC4)CC3)C2=O)C(=O)N1 (some centres unmarked) [E1]
6.12	50	73	70	88	CN(CC(=O)N1CCC2(CC1)COc1c2ccc2c1CN(C1CCC(=O)NC1=O)C2=O)CC1CCN(c2ccc([C@@H]3c4ccc(O)cc4CC[C@@H]3c3ccccc3)cc2)CC1 (some centres unmarked) [J10]
510	4	-4	11	34	O=C1CCC(N2C(=O)c3ccc4c(c3C2=O)OCC42CCN(C3CCC4(CC3)CN(c3ccc([C@@H]5c6ccc(O)cc6CC[C@@H]5c5ccccc5)cc3)C4)CC2)C(=O)N1 (some centres unmarked) [L7]
1260	38	71	53	78	CN(CC(=O)N1CCC2(CC1)COc1c2ccc2c1CN(C1CCC(=O)NC1=O)C2=O)C1CC2(CCN(c3ccc([C@@H]4c5ccc(O)cc5CC[C@@H]4c4ccccc4)cc3)CC2)C1 (some centres unmarked) [H48]
16.3	-7	55	38	79	C[C@@H]1Cc2c([nH]c3ccccc23)[C@@H](c2c(F)cc(N3CCC4(CCN(C(=O)CN5CCC6(CC5)COc5c6ccc6c5CN(C5CCC(=O)NC5=O)C6=O)CC4)CC3)cc2F)N1CC(F)F (some centres unmarked) [A118]
11.7	63	61	56	55	C[C@@H]1Cc2cc(O)ccc2[C@@H](c2c(F)cc(N3CCC(C(=O)N4CCC(N5CCC6(CC5)COc5c6ccc6c5CN(C5CCC(=O)NC5=O)C6=O)CC4)CC3)cc2F)N1CC(F)F (some centres unmarked) [I2]
140	53	77	50	81	O=C1CCC(N2Cc3c(ccc4c3OCC43CCN(CC(=O)NC4CC5(CCN(c6ccc([C@@H]7c8ccc(O)cc8CC[C@@H]7c7ccccc7)cc6)CC5)C4)CC3)C2=O)C(=O)N1 (some centres unmarked) [H46]

Structure (SMILES)	IC50 [1] [nM]	Degradation rate (%) of ERα in MCF-7 cells ([2]; 1nM compound) [%]	Degradation rate (%) of ERα in MCF-7 cells ([2]; 10nM compound) [%]	Degradation rate (%) of ERα in T-47D cells ([3]; 1nM compound) [%]	Degradation rate (%) of ERα in T-47D cells ([3]; 10nM compound) [%]
O=C1CCC(N2Cc3c(ccc4c3OCC43CCN(C4CN(C5CCN(c6ccc([C@@H]7c8ccc(O)cc8CC[C@@H]7c7ccccc7)cc6)CC5)C4)CC3)C2=O)C(=O)N1 (some centres unmarked) [A58]	12.8	42	69	35	71
